The results in this text go back to patent publication US12570666B2, “Furoindazole derivatives” (Bayer Aktiengesellschaft, priority 2019, dated 2026).

The test system of assay [1] is mouse CFA model of inflammation. As to the kind of experiment: In vivo assay 2: CFA pain model, dynamic weight-bearing (DWB). As to conditions: DWB 24 h after CFA. Here is the method: In Vivo Assay 2: Effects of Example 3-2 in the CFA Pain Model
The efficacy of Example 3-2 in vivo on inflammatory pain was measured in inflamed paws after administration of complete Freund's adjuvant (CFA) (24 h) in the dynamic weight-bearing (DWB) model. The effects of repeated preventive treatment with Example 3-2 on pain following repeated oral administration (3×) in the mouse CFA model of inflammation were investigated using a preventive setting. The GPR84 antagonist Example 3-2 (20 or 60 mg/kg, 3× doses) was administered 2 h before injection of CFA and 6-8 h later at day 0. At 24 h after CFA application, the third dose of Example 3-2 was given 2 h before DWB testing. Statistical analysis was performed with one-way analysis of variance, followed by Bonferroni's multiple comparison test against vehicle control groups using the GraphPad PRISM software, *p<0.05.

Another assay concerns the target T1, human GPR84 receptor (Homo sapiens, UniProt Q9NQS5).
T1 construct: frozen aliquots prepared by acCELLerate; host or cells: CHO-K1
The assay is described as follows: cAMP HTRF assay for identification of cellular GPR84 antagonists. In kind it is cell-based. The note with it: CHO-K1 cells stably expressing human GPR84; Forskolin + agonist 6-OAU (EC80); average or median values. In a few lines: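 Forskolin-stimulated CHO-K1 cells stably expressing human GPR84, agonist-suppressed cAMP measured by HTRF (665/620 ratio) after lysis. Compounds at 11 concentrations, 20 μM to 0.07 nM, duplicate; normalized to DMSO and no-agonist controls; IC50 by 4-parameter fit.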

In another assay the test system is rat DHT-PCOS model. As to the kind of experiment: In vivo assay 1: DHT driven rat PCOS model. As to conditions: 26 days of drug administration. Details: species or system Han-Wistar rats. The protocol: In Vivo Assay 1: GPR84 Ligand and Antagonist Characterization in PCOS Model
The efficacy of Example 3-2 in vivo on the treatment of POCS was measured in the DHT driven rat PCOS model. At 3 weeks of age, Han-Wistar rats were randomly divided into three experimental groups [control (n=10), DHT (n=10), and DHT plus Example 3-2 (n=10)] and implanted s.c. with 60-d continuous-DHT-release pellets (80 μg/d, Bayer AG, Germany). The dose of DHT was chosen to mimic the hyperandrogenic state in women with PCOS. Controls received identical pellets lacking the bioactive DHT molecule. Animal received a standard chow, only for the last week standard show was replaced by a high fat diet. Rats were weighted bi-weekly from 21 d of age. The study was concluded after 26 days of drug administration. […] Statistical analysis was performed with one-way analysis of variance, followed by Bonferroni's multiple comparison test against vehicle control groups using the GraphPad PRISM software, *p<0.05.

T1 sequence (Q9NQS5 whole entry): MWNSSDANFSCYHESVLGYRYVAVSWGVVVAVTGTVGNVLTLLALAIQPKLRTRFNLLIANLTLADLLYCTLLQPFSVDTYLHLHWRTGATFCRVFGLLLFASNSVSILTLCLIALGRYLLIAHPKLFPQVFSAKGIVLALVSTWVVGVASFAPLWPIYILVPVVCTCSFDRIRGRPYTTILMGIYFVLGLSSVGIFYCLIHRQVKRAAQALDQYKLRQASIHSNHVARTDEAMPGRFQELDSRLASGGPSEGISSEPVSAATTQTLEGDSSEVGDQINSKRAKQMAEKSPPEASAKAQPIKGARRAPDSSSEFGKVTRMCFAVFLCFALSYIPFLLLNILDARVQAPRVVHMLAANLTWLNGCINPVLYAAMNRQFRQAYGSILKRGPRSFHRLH

In general, IC50 refers to the concentration needed to halve the response being measured. Consider `Cc1c(C(=O)NC[C@@H]2CCCO2)oc2c1-c1nn(Cc3ccccn3)cc1CC2` [Example 3-2, 8-methyl-2-(pyridin-2-ylmethyl)-N-[(2S)-tetrahydrofuran-2-ylmethyl]-4,5-dihydro-2H-furo[2,3-g]indazole-7-carboxamide], for which the “Weight distribution (% weight on injected paw) mean +/- SD” value in assay [1] (3x 20 mg p.o., vehicle 43 +/- 20, not significant vs. vehicle group) is recorded as 60 +/− 21 (not significant vs. vehicle group) %; in assay [1] (3x 60 mg p.o., vehicle 43 +/- 20, significant vs. vehicle group), 83 +/− 18 (significant vs. vehicle group) %. The IC50 at human GPR84 receptor worked out at 110 nM. Also, in the assay with rat DHT-PCOS model (DHT driven rat PCOS model), the weight gain entry was “gained less weight compared to the untreated control”. The “Relative weight vs. Vehicle control” value in the assay with rat DHT-PCOS model (rat DHT-PCOS model, p.o. 60 mg/kg morning dose + s.c. 60 mg/kg evening dose, DHT-Vehicle group 111%) is given as 103% * (significant vs. Consider `Cc1c(C(=O)NC[C@@H]2COCCO2)oc2c1-c1nn(Cc3ccccn3)cc1CC2` [Example 19-1, N-[(2R)-1,4-dioxan-2-ylmethyl]-8-methyl-2-(pyridin-2-ylmethyl)-4,5-dihydro-2H-furo[2,3-g]indazole-7-carboxamide], for which the IC50 on human GPR84 receptor was determined as 64 nM.

For `O=C(NC[C@@H]1CCCO1)c1oc2c(c1C(F)(F)F)-c1nn(C[C@H]3COCCO3)cc1CC2` [Example 221, 2-{[(2S)-1,4-dioxan-2-yl]methyl}-N-{[(2S)-oxolan-2-yl]methyl}-8-(trifluoromethyl)-4,5-dihydro-2H-furo[2,3-g]indazole-7-carboxamide], the IC50 at human GPR84 receptor was 8 nM. Still for that read-out and setting: next, `Cc1c(C(=O)NCc2cc(C3CC3)on2)oc2c1-c1nn(CC3COc4ncccc4O3)cc1CC2` (single isomer, unassigned) [Example 50-2]: 17 nM; `C[C@@H]1Cc2oc(C(=O)NC[C@@H]3CCCO3)c(C(F)(F)F)c2-c2nn(C[C@H]3COCCO3)cc21` (single isomer, unassigned) [Example 255-1, (4R or 4S)-2-{[(2S)-1,4-dioxan-2-yl]methyl}-4-methyl-N-{[(2S)-oxolan-2-yl]methyl}-8-(trifluoromethyl)-4,5-dihydro-2H-furo[2,3-g]indazole-7-carboxamide]: 3 nM.

`Cc1c(C(=O)NCC2CCO2)oc2c1-c1nn(Cc3ccccn3)cc1CC2` (single isomer, unassigned) [Example 35-2]: on human GPR84 receptor, the half-maximal inhibitory concentration (IC50) turned out to be 770 nM. Regarding `CC(=O)N1CC(F)(Cn2cc3c(n2)-c2c(oc(C(=O)NC[C@@H]4CCCO4)c2C)CC3)C1` [Example 165, 2-[(1-acetyl-3-fluoroazetidin-3-yl)methyl]-8-methyl-N-[(2S)-tetrahydrofuran-2-ylmethyl]-4,5-dihydro-2H-furo[2,3-g]indazole-7-carboxamide], the IC50 on human GPR84 receptor turned out to be 110 nM. On to `Cc1cccnc1Cn1cc2c(n1)-c1c(oc(C(=O)NC[C@@H]3COCCO3)c1C)CC2` [Example 63, N-[(2R)-1,4-dioxan-2-ylmethyl]-8-methyl-2-[(3-methylpyridin-2-yl)methyl]-4,5-dihydro-2H-furo[2,3-g]indazole-7-carboxamide], for which the IC50 at human GPR84 receptor worked out at 60 nM. Regarding `COCC(=O)N1CCC(Cn2cc3c(n2)-c2c(oc(C(=O)NC[C@@H]4COCCO4)c2C(F)(F)F)CC3)CC1` [Example 283, N-{[(2R)-1,4-dioxan-2-yl]methyl}-2-{[1-(methoxyacetyl)piperidin-4-yl]methyl}-8-(trifluoromethyl)-4,5-dihydro-2H-furo[2,3-g]indazole-7-carboxamide], at human GPR84 receptor, the IC50 turned out to be 139 nM. With `O=C(NC[C@@H]1CCCO1)c1cc2c(o1)CCc1cn(Cc3ccccn3)nc1-2` [Example 1, 2-(pyridin-2-ylmethyl)-N-[(2S)-tetrahydrofuran-2-ylmethyl]-4,5-dihydro-2H-furo[2,3-g]indazole-7-carboxamide], on human GPR84 receptor, the IC50 was 1000 nM.

In the case of `Cc1c(C(=O)NCCc2ccccc2)oc2c1-c1nn(Cc3ccccn3)cc1CC2` [Example 42, 8-methyl-N-(2-phenylethyl)-2-(pyridin-2-ylmethyl)-4,5-dihydro-2H-furo[2,3-g]indazole-7-carboxamide], at human GPR84 receptor, the IC50 is 1530 nM.
